Test results as given in PMC9027957, “Interspecies Comparisons of the Effects of Potential Antiviral 3-Amidinophenylalanine Derivatives on Cytochrome P450 1A2 Isoenzyme” (Veterinary Sciences, 2022).
Like-named read-outs stand apart in the source and are kept apart here.

How the values were obtained:
[1] = biological target: T1, CYP1A2 (Canis lupus familiaris, UniProt P56592); assay: CYP1A2 fluorometric activity assay in beagle hepatic microsomes; format: in vitro ADME; settings: beagle, dog, 15 min, 50 µM
T1 construct: endogenous in cells; host or cells: beagle hepatocytes
T1 sequence (P56592 1-512): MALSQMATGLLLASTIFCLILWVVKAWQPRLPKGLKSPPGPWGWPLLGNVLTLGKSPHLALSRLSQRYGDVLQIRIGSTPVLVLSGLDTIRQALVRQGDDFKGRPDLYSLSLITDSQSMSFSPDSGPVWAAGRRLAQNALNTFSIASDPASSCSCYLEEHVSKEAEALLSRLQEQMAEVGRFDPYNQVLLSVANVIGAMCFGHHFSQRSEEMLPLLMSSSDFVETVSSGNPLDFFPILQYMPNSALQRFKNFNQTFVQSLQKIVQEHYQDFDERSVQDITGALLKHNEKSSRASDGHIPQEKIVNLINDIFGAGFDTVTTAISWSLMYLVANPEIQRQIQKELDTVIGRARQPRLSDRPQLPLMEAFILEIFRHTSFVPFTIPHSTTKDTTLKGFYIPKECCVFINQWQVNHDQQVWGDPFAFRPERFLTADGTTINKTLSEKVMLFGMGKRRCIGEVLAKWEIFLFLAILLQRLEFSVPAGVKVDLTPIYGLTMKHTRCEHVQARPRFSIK
Method: (§1) The Biovision CYP assay (BioVision, Inc., Kampenhout, Belgium) utilizes a non-fluorescent CYP1A2 substrate capable of transforming into a highly fluorescent metabolite, which can be detected in the visible range. α-naphthoflavone was used as a CYP1A2 reference inhibitor at 6 µM during the experiments. Rat (Sprague–Dawley) and beagle (Gibco, Biocenter, Szeged, Hungary, protein concentration: 20 mg/mL) hepatic microsomal preparations were prepared separately by mixing 25 µL of the obtained rat or beagle microsomal suspension with 2425 µL assay buffer and with 50 µL NADPH generating system (100×). In the case of the cynomolgus monkey microsomal suspension (Primacyt, Schwerin, Germany, protein concentration: 5 mg/mL), the following volumes were applied: in addition to 100 µL of monkey microsomal suspension, the amount of assay buffer and the NADPH generating system were adjusted in order to ensure the original ratios of these components to reach a final volume of 2500 µL. Rat, beagle, and cynomolgus monkey microsomal suspension aliquots (50 µL) were treated with the protease inhibitor 20 µL, 0–1000 µM), the reference compound α-naphthoflavone (20 µL, 30 µM), or the assay buffer without test compounds (20 µL, background control) for 15 min at 37 °C. After incubation, 30 µL of the appropriate CYP1A2 substrate/NADP+ mixture was added to each well, yielding a final reaction volume of 100 µL/well. The protein contents of the obtained microsomes were analysed using bicinchoninic acid protein assay kit (Pierce BCA kit, Thermo Fisher Scientific, Waltham, MA, USA). […] The fluorescence intensities were measured with a fluorometer (Victor X2 2030, Perkin Elmer, Waltham, MA, USA), using λEx/Em = 406/468 nm.

[2] = biological target: T1, CYP1A2; format: cell-based; settings: dog, 2 h
Method: For the measurements of CYP1A2 activities, hepatocytes were grown on 24-well collagen-coated membrane inserts (Costar Transwell-PTFE membrane, 6.5 mm, pore size: 0.4 µm, Merck, Darmstadt, Germany). […] The determination of the CYP1A2 activities were performed using the P450-Glo CYP450 Assay (Promega, Madison, WI, USA) according to the manufacturer’s instructions.

[3] = tested on: chicken hepatic cell model; settings: cited from earlier work
[4] = biological target: T2, CYP1A2 (Rattus norvegicus, UniProt P04799); assay: CYP1A2 fluorometric activity assay in rat hepatic microsomes; format: in vitro ADME, rat (Sprague–Dawley); set-up: Rat (Sprague–Dawley) and beagle (Gibco, Biocenter, Szeged, Hungary, protein concentration: 20 mg/mL) hepatic microsomal preparations; tissue Gibco, Biocenter, Szeged, Hungary; host or cells: liver (hepatic microsomes), Sprague-Dawley rat
T2 sequence (P04799 1-513): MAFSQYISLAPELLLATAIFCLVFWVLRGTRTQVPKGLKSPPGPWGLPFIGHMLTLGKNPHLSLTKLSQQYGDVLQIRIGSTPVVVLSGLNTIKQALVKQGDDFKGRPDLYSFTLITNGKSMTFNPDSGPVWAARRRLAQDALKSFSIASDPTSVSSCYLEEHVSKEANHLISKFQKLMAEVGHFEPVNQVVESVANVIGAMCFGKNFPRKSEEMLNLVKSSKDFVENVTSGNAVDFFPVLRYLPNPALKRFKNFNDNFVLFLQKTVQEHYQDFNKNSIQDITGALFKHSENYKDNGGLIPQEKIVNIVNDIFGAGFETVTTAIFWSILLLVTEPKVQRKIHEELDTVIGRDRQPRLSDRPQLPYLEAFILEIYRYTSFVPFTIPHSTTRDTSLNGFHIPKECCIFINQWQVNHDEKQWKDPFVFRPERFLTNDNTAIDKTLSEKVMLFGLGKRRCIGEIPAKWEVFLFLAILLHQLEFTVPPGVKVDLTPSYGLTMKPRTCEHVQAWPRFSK
Method: as §1

[5] = tested on: rat hepatocytes; assay: MTS cytotoxicity assay in rat primary hepatocytes; format: cell-based; settings: 50 μM and 100 μM, 24 h
Method: (§2) Rat, beagle, and cynomolgus monkey cryopreserved primary hepatocytes were obtained from Primacyt Cell Culture Company (Schwerin, Germany). The thawing, plating, and maintenance media were purchased from Lonza Group Ltd. (Biocenter Ltd., Szeged, Hungary). Influence of inhibitors MI-432 and MI-1900 on the viability of primary […] hepatocytes was tested. Hepatocytes, grown on a 96-well plate for 24 h, were incubated with the inhibitors at 0, 50, and at 100 µM for 24 h in treated groups. The control cells were incubated only with cell maintenance medium. After removal of the medium and three-fold washing of the cells with phosphate-buffered saline (PBS), 20 μL aliquots of CellTiter 96 AQueous one solution (MTS, Promega, Bioscience, Budapest, Hungary) were pipetted into a 96-well plate, each containing 100 μL of phenol red free medium. The plate was incubated with dye for 2 h. Viability of hepatocytes was measured at 490 nm using an EZ Read Biochrom 400 microplate reader.

[6] = tested on: beagle hepatocytes; assay: MTS cytotoxicity assay in beagle primary hepatocytes; format: cell-based; settings: 50 μM and 100 μM, 24 h
Method: as §2

[7] = tested on: cynomolgus monkey hepatocytes; assay: MTS cytotoxicity assay in cynomolgus monkey primary hepatocytes; format: cell-based; settings: 50 μM and 100 μM, 24 h
Method: as §2

[8] = tested on: intestinal epithelial cells (HIEC and IPEC-J2) and primary human hepatocytes (PHH); settings: up to a concentration 50 μM; cited from earlier work
[9] = tested on: intestinal epithelial cells; settings: up to a concentration 50 μM; cited from earlier work

## N=C(N)c1cccc(C[C@H](NS(=O)(=O)c2cccc(-c3ccc(Cl)cc3Cl)c2)C(=O)N2CCC(CCN)CC2)c1 [MI-432]
[1]
  beagle hepatic microsomal CYP1A2 isoenzyme activity: reduced the activity of CYP1A2
[2]; 20 µM
  CYP1A2 function in beagle hepatocytes: significantly inhibited CYP1A2 function
[2]; 50 µM
  CYP1A2 function in beagle hepatocytes: significantly inhibited CYP1A2 function
[3]
  redox homeostasis: only transiently disturbed
[4]; Sprague-Dawley, rat, 15 min, 50 µM
  rat hepatic microsomal CYP1A2 isoenzyme activity: did not inhibit CYP1A2 function

## COc1ccc(-c2cccc(S(=O)(=O)N[C@@H](Cc3cccc(C(=N)N)c3)C(=O)N3CCN(C(=O)NC4CCCCC4)CC3)c2)c(OC)c1 [MI-1900]
[5]
  cell viability vs control: No significant differences
[6]
  cell viability vs control: No significant differences
[7]
  cell viability vs control: No significant differences
[8]
  cell death: did not cause significant cell death
[9]
  extracellular hydrogen peroxide levels: did not result in elevation in extracellular hydrogen peroxide levels
[4]; inhibitors at 50 µM, 15 min at 37 °C, vs untreated control
  rat hepatic microsomal CYP1A2 isoenzyme activity: suppressed
